{
  "source": "paper PMC11237012",
  "about": "“Synthesis and preliminary evaluation of novel PET probes for GSK-3 imaging” (Scientific Reports, 2024)",
  "key": {"[1]": {"test": "In vitro parallel artificial membrane permeability assay (PAMPA), blood–brain barrier permeability", "conditions": "for Papp: PAMPA", "excerpt": "To evaluate the blood–brain barrier permeability and binding affinity of the developed PET probes[^18F]2 and [^18F]6, their respective nonradioactive versions were used. For blood–brain barrier permeability evaluation, we applied in vitro parallel artificial membrane permeability assay (PAMPA) and evaluated binding affinity via an inhibition assay to determine the IC50 value, as described in method section. We further measured the stability of both PET probes, [^18F]2 and [^18F]6, using radio thin layer chromatography (radio-TLC) over time, as also described in the method section. […] The blood–brain permeability was expressed through the permeability coefficient, P (10^–6 cm/s) and -logPe."}, "[2]": {"biological_target": "T1, human GSK-3α (Homo sapiens, UniProt P49840)", "T1 construct": "purchased Promega Corporation, Madison, WI", "T1 sequence (P49840 whole entry)": "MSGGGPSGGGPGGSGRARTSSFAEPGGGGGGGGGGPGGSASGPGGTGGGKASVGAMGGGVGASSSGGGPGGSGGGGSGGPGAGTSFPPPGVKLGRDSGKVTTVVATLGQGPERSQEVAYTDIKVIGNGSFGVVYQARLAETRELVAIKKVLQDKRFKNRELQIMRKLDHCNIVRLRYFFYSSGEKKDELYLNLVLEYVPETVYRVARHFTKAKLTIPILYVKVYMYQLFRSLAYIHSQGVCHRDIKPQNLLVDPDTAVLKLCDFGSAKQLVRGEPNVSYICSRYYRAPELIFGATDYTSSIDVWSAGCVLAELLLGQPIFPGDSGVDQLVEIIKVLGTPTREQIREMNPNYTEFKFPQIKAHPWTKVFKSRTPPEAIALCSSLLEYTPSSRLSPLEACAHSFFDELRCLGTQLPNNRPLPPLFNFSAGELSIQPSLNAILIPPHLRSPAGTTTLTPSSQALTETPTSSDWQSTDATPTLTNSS", "test": "GSK-3α kinase inhibition assay (ADP-Glo)", "type": "biochemical", "excerpt": "(§1) Phosphorylation of glycogen synthase kinase substrate was quantified using a luminescent ADP-Glo™ Kinase assay system (Promega Corporation, Madison, WI)."}, "[3]": {"biological_target": "T2, human GSK-3β (Homo sapiens, UniProt P49841)", "T2 construct": "purchased Promega Corporation, Madison, WI", "T2 sequence (P49841 whole entry)": "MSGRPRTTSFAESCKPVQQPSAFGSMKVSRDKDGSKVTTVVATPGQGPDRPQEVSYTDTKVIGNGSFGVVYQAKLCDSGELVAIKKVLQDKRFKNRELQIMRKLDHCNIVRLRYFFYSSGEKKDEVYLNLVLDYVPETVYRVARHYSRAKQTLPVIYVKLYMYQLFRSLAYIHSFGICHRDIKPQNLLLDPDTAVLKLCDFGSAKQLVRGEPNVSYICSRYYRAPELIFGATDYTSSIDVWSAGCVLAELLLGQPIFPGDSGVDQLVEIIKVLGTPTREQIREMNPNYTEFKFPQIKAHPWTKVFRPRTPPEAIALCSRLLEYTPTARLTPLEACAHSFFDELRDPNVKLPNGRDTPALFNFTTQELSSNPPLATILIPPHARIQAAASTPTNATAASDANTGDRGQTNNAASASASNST", "test": "GSK-3β kinase inhibition assay (ADP-Glo)", "type": "biochemical", "excerpt": "as §1"}, "[4]": {"test": "Radiochemical stability in mouse serum (rad-TLC)", "type": "in vitro ADME", "conditions": "37 °C", "procedure": "(§2) The stability of PET probes [^18F]2 and [^18F]6 was measured in isotonic NaCl solution (0.9% NaCl) and mouse and human serums at 37 °C for up to 120 min by rad-TLC at 0 min, 30 min, 60 min and 120 min post incubation. The results obtained are presented in Fig. 5 and SI-Figs. S10–S15, SI-Table S1. […] The plausible explanation of the instability of [^18F]6 could be attributed to the covalent interaction of [^18F]6’s SO2F group with primary amines of amino acid residues present in the protein rich mouse and human serums. In fact, in an unrelated study, Zhao et al. reported formation of sulfonamide bond between sulfuryl fluoride and primary amine of conserved lysine residues of different kinases. […] Based on 2’s favorable blood–brain barrier permeability, nanomolar binding affinity and PET probe [^18F]2’s excellent stability in both mouse and human serums, further in vivo evaluations were performed only with PET probe [^18F]2.\n(§3) Stability of [^18F]2 and [^18F]6 was assessed in isotonic NaCl solution and human and mouse serums. To perform this stability assay, 100 µL of [^18F]2 (~ 37.0 MBq) or 100 µL of [^18F]6 (~ 37.0 MBq) as in final formulation was added to 100 µL of human serum or mouse serum in a microcentrifuge tube. The resultant mixture was incubated at 37 °C for 120 min. To assess the radiochemical stability of the probes, a small aliquot (~ 0.5 µL) was taken out from the mixture in triplicate at 0 min, 30 min, 60 min and 120 min during incubation, and analyzed on a rad-TLC using 0.5:9.5 methanol: chloroform as a mobile phase using i-TLC to estimate the stability of [^18F]2 or [^18F]6 at different time points post-incubation. After Stability preparative processes initial i-TLC development was considered as 0 min."}, "[5]": {"test": "Radiochemical stability in human serum (rad-TLC)", "type": "in vitro ADME", "conditions": "37 °C", "procedure": "as §2, §3"}, "[6]": {"test": "Radiochemical stability in isotonic NaCl solution (rad-TLC)", "type": "physicochemical", "conditions": "37 °C", "procedure": "as §2, §3"}, "[7]": {"set-up": "method as in PMID 33492962, doi:10.1002/ejoc.202201031", "conditions": "cited from earlier work"}, "[8]": {"set-up": "method as in PMID 33492962, doi:10.1002/ejoc.202201031", "conditions": "FVB/NJ mice; cited from earlier work"}, "[9]": {"set-up": "method as in PMID 33840834, PMID 35295885, PMID 34423266", "conditions": "2 min post injection; Sprague Dawley rats; cited from earlier work"}, "[10]": {"biological_target": "GSK-3β", "set-up": "method as in PMID 33840834, PMID 35295885, PMID 34423266", "conditions": "cited from earlier work"}, "[11]": {"conditions": "pH 7.4, Permeability coefficient, P, Average ± SD"}},
  "note": "Values joined by “and” are separate entries in the source; they are usually repeats but may differ in a detail not shown here. Equal entries are not always repeated. Structures can show the parent of a compound that is named as a salt.",
  "data": [
    {"smiles": "O=C(Nc1cnccc1-c1ccc(F)cc1)c1ccnc(NC(=O)C2CC2)c1", "note": "[Compound 2, 2-(cyclopropanecarboxamido)-N-(4-(4-fluorophenyl)pyridin-3-yl)isonicotinamide]", "values": [
      {"measurement": "Papp", "setting": "[1]; pH 7.4, Average ± SD", "result": 31.6, "unit": "×10⁻⁶ cm/s"},
      {"measurement": "Papp", "setting": "[1]; [11]", "result": "36 ± 20", "unit": "×10⁻⁶ cm/s"},
      {"measurement": "Permeability coefficient, P, Average ± SD", "setting": "[1]; pH 7.4", "result": "38 ± 20 (n = 3) 10^–6 cm/s"}
    ]},
    {"smiles": "O=C(Nc1cnccc1-c1ccc(OS(=O)(=O)F)cc1)c1ccnc(NC(=O)C2CC2)c1", "note": "[Compound 6, 4-(3-(2-(cyclopropanecarboxamido)isonicotinamido)pyridin-4-yl)phenyl sulfurofluoridate]", "values": [
      {"measurement": "Papp", "setting": "[1]; pH 7.4", "result": "8.75 ± 3.9", "unit": "×10⁻⁶ cm/s"},
      {"measurement": "IC50", "setting": "[2]", "result": "55.7 ± 4.89", "unit": "nM"},
      {"measurement": "IC50", "setting": "[3]", "result": "44 ± 2.84", "unit": "nM"}
    ]},
    {"smiles": "CC(C)NCC(O)COc1cccc2ccccc12", "note": "(centres unmarked) [Propranolol HCl, reference compound]", "values": [
      {"measurement": "Papp", "setting": "[1]; [11]", "result": "32 ± 1", "unit": "×10⁻⁶ cm/s"}
    ]},
    {"smiles": "O=C(Nc1cnccc1-c1ccc(OS(=O)(=O)[18F])cc1)c1ccnc(NC(=O)C2CC2)c1", "note": "[[^18F]6]", "values": [
      {"measurement": "Percentage of intact probe", "setting": "[4]; 30 min", "result": "87.30 ± 8.99", "unit": "%"},
      {"measurement": "Percentage of intact probe", "setting": "[4]; 60 min", "result": "81.17± 6.38", "unit": "%"},
      {"measurement": "Percentage of intact probe", "setting": "[4]; 120 min", "result": "67.01 ± 4.93% and 67.01 ± 6.38%"},
      {"measurement": "Percentage of intact probe", "setting": "[5]; 30 min", "result": "92.46± 2.61% and 92.46 ± 2.6%"},
      {"measurement": "Percentage of intact probe", "setting": "[5]; 60 min", "result": "80.13± 14.24", "unit": "%"},
      {"measurement": "Percentage of intact probe", "setting": "[5]; 120 min", "result": "66.20 ± 6.38% and 66.20 ± 4.93%"},
      {"measurement": "Percentage of intact probe", "setting": "[6]; 0 min", "result": "100 ± 0.0", "unit": "%"},
      {"measurement": "Percentage of intact probe", "setting": "[6]; 30 min", "result": "100 ± 0.0", "unit": "%"},
      {"measurement": "Percentage of intact probe", "setting": "[6]; 60 min", "result": "100 ± 0.0", "unit": "%"}
    ]},
    {"smiles": "O=C(Nc1cnccc1-c1ccc([18F])nc1)c1ccnc(NC(=O)C2CC2)c1", "note": "[[^18F]CNBI]", "values": [
      {"measurement": "metabolic stability", "setting": "[7]", "result": "moderate"},
      {"measurement": "brain uptake", "setting": "[8]", "result": "poor"}
    ]},
    {"smiles": "COc1ccc(-c2ocnc2C(=O)NCCCc2ccc([18F])nc2)cc1Cl", "note": "[[^18F]OCM50]", "values": [
      {"measurement": "standardized uptake value (SUV)", "setting": "[9]", "result": "~ 2.0"},
      {"measurement": "Ki", "setting": "[10]", "result": 0.28, "unit": "nM"}
    ]}
  ]
}
